Assay results: EP2545915A1, “2-amino-2-oxoethyl trans-3-[5-(6-methoxy-naphtalen-1-yl)-1,3-dioxan-2-yl]propyl-carbamate for use in the treatment of persistent cancer pain” (SANOFI, priority 2011, dated 2013)
Read-outs that look alike come from different tables or passages of the source.

System: UDP-glucuronosyl transferase
Type: in vitro ADME, human
Conditions: for % Control (M3G Formation Activity) / % Control (M6G Formation Activity): morphine 2mM, HLM protein 0.5 mg/mL, 30 min
Description: Incubations were conducted in 2-mL polypropylene centrifuge tubes. Incubation mixtures containing HLM suspension and alamethicin (25 µg/mL) in 0.1 M potassium phosphate buffer (pH 7.4), were placed on wet ice for 5 min. […] Reactions were initiated by the addition of 50 mM UDPGA spiking solution. […] Samples were incubated aerobically in a water bath at 37 °C for the required amount of time and reactions terminated by the addition of 400 µL of the appropriate quench solution. The 2-mL centrifuge tubes were vortex mixed and stored in a -20 °C freezer for ca. 20 min prior to centrifugation at 13.3 × g, 4 °C for 10 min. Supernatants were analyzed by LC-MS/MS for morphine metabolites formation.
UGT-dependent activities were determined by monitoring the formation of enzyme specific metabolites from marker substrates. […] Incubation with selective inhibitors (positive control) was performed at a concentration above their established IC50 for the confirmation of enzyme activity and inhibitory effects.
Incubations were performed in 2-mL centrifuge tubes. Incubation mixtures containing HLM suspension and alamethicin (25 µg/mL) in 0.1 M potassium phosphate buffer (pH 7.4), were placed on wet ice for 5 min. […] Reactions were initiated by the addition of UDPGA. The final incubation mixture contained 0.5 mg/mL HLM, 2 mM MgCl2, 5 mM UDPGA, various concentration of Compound A or a selective inhibitor. Samples were incubated aerobically in a water bath at 37 °C for 30 min. The incubation systems were terminated by the addition of a 400-µL quenching solution. The 2-mL centrifuge tubes were vortex mixed and stored in a -20 °C freezer for approximately 20 min prior to centrifugation at 13.3 × g, 4 °C for 10 min. Supernatants were analyzed by LC-MS/MS.
Percent of Control = Cmet ÷ Ccontrol × 100%
Cmet: Concentration of the metabolite in the incubations in the presence of Compound A or selective inhibitor
Ccontrol: Concentration of the enzyme-specific metabolite in the incubations in the absence of Compound A and selective inhibitor
The IC50 for Compound A was estimated by non-linear regression analysis of individual sets of percent inhibition values using GraphPad Prism 5.

[1] = positive control incubation, same conditions (2 mM morphine, HLM 0.5 mg/mL, 30 min)

`CC(=O)N1CCN(c2ccc(OCC3COC(Cn4ccnc4)(c4ccc(Cl)cc4Cl)O3)cc2)CC1` (stereo not drawn) [ketoconazole, reference compound] was tested, and the “inhibition to M3G activity” value [1] was at least 98.5% and the “inhibition to M6G activity” value [1] was at least 98.5%.
For `COc1ccc2c(cccc2[C@H]2CO[C@H](CCCNC(=O)OCC(N)=O)OC2)c1` [Compound A, 2-amino-2-oxoethyl trans-3-[5-(6-methoxy-naphtalen-1-yl)-1,3-dioxan-2-yl]propyl-carbamate], the IC50 (2 mM morphine in HLM, Compound A 0.5 to 250 µM, M3G and M6G formation monitored) was “could not be estimated”, the “% Control (M3G Formation Activity)” value (Compound A 0.5 µM) was 97.7% and the “% Control (M6G Formation Activity)” value (Compound A 0.5 µM) was 96.9%. For the same compound, the “% Control (M3G Formation Activity)” value (Compound A 1.0 µM) was 96.2%, the “% Control (M6G Formation Activity)” value (Compound A 1.0 µM) was 94.4% and the “% Control (M3G Formation Activity)” value (Compound A 5.0 µM) was 106.0%. The “% Control (M6G Formation Activity)” value (Compound A 5.0 µM) was 102.4%, the “% Control (M3G Formation Activity)” value (Compound A 10 µM) was 107.9% and the “% Control (M6G Formation Activity)” value (Compound A 10 µM) was 110.4%. For the same compound, the “% Control (M3G Formation Activity)” value (Compound A 25 µM) was 108.3%, the “% Control (M6G Formation Activity)” value (Compound A 25 µM) was 105.8% and the “% Control (M3G Formation Activity)” value (Compound A 50 µM) was 105.7%. The “% Control (M6G Formation Activity)” value (Compound A 50 µM) was 108.3%, the “% Control (M3G Formation Activity)” value (Compound A 100 µM) was 92.7% and the “% Control (M6G Formation Activity)” value (Compound A 100 µM) was 97.4%. The “% Control (M3G Formation Activity)” value (Compound A 250 µM) was 94.2%, the “% Control (M6G Formation Activity)” value (Compound A 250 µM) was 96.5% and the “drug interaction with morphine” value (according to in vitro results) was “no significant drug interaction”. For the same compound, the “inhibition of morphine metabolism” value (human liver microsomes, formation of morphine-3-glucuronide and morphine-6-glucuronide monitored) was “no inhibition”.
